Values quoted from earlier work as cited in patent US10633811B1, “Apparatus and method for collecting and disposing of pet waste” (COSMIC PET LLC, priority 2017, dated 2020).

Legend:
[1] = tested on: Pseudomonas aeruginosa PAO1; conditions: CAMHB, 0.1% Tween 80
C. coli ATCC 43484 = conditions: Table 3, single compounds; Nutrient Broth No. 2, 37° C., Tween 80 0.002% vol/vol
E. faecalis ATCC 29212 = conditions: Table 3, single compounds; Nutrient Broth No. 2, 37° C., Tween 80 0.002% vol/vol
[2] = tested on: S. typhimurium ATCC 14028; conditions: Table 3, single compounds; Nutrient Broth No. 2, 37° C., Tween 80 0.002% vol/vol
E. coli O26 = conditions: Table 3, single compounds; Nutrient Broth No. 2, 37° C., Tween 80 0.002% vol/vol
C. jejuni 3393 = conditions: Table 3, single compounds; Nutrient Broth No. 2, 37° C., Tween 80 0.002% vol/vol
C. jejuni C338 = conditions: Table 3, single compounds; Nutrient Broth No. 2, 37° C., Tween 80 0.002% vol/vol
Campylobacter spp. = conditions: against Campylobacter spp., E. coli, S. typhimurium, and E. faecalis
Campylobacter jejuni = conditions: strain not given

Row | Compound | MIC [1] [%] | C. coli ATCC 43484 (MIC %) (C. coli ATCC 43484) [%] | E. faecalis ATCC 29212 (MIC %) (E. faecalis ATCC 29212) [%] | S. typhimurium ATCC 14028 (MIC %) [2] [%] | E. coli O26 (MIC %) (E. coli O26) [%] | C. jejuni 3393 (MIC %) (C. jejuni 3393) [%] | C. jejuni C338 (MIC %) (C. jejuni C338) [%] | antimicrobial activity among single compounds (Campylobacter spp.) | C.jejuni 108 MIC (C.jejuni 108) [µM] | C.jejuni 81116 MIC (C.jejuni 81116) [µM] | concentration that inhibits Campylobacter jejuni (Campylobacter jejuni) [mM]
1 | C=CCc1ccc(O)c(OC)c1 [Eugenol] | >5 | – | – | – | – | – | – | – | – | – | –
2 | C=CC(C)(O)CCC=C(C)C (stereo not shown) [Linalool] | >5 | – | – | – | – | – | – | – | – | – | –
3 | C=CC(C)(O)CCC=C(C)CCC=C(C)C (stereo not shown) [Nerolidol] | – | 1 | >2 | >2 | >2 | 0.5 | 0.5 | – | – | – | –
4 | CC1=CCC(O)(C(C)C)CC1 (stereo not shown) [Terpinen-4-ol] | – | 0.06 | 0.5 | 0.06 | 0.06 | 0.06 | 0.06 | highest activity | – | – | –
5 | O=CC=Cc1ccccc1 [Cinnamaldehyde] | 0.1 | – | – | – | – | – | – | – | – | – | –
6 | CC12CCC(CC1)C(C)(C)O2 [Cineole] | – | 0.25 | >2 | 2 | 1 | 0.25 | 0.25 | – | – | – | –
7 | Cc1ccc(C(C)C)cc1O [Carvacrol] | – | – | – | – | – | – | – | – | 300 to 400 | 300 to 400 | 0.3 to 0.4
8 | α-Bisabolol | – | 0.5 | >2 | >2 | 2 | 0.125 | 0.5 | – | – | – | –
9 | CC1=CC=C(C(C)C)CC1 [α-Terpinene] | – | 0.125 | >2 | >2 | >2 | 0.125 | 0.25 | – | – | – | –
